How the values were obtained:
[1] = system: Granta-519 mouse xenograft; experiment: Tumor growth inhibition in Granta-519 mouse xenograft model; format: in vivo
Description: Granta-519 cells was maintained in DMEM medium supplemented with 10% fetal bovine serum and 2 mM L-Glutamine at 37° C. in an atmosphere of 5% CO2 in air. Cells in exponential growth phase were harvested and 1×10^7 cells in 0.1 mL of PBS with Matrigel (1:1) were injected subcutaneously at the right lower flank region of each mouse for tumor development. The treatments were started when the mean tumor size reaches approximately 300-400 mm^3. […] Example 1 or vehicle (0.5% Na CMC+0.5% Tween80, suspension) were administered orally (BID or QD for Example 1, QD for vehicle) at a dose of 25 mg/kg BID and 50 mg/kg QD for 16 and 20 days, respectively. Body weights and tumor size were measured every 3 to 4 days after randomization. Animals were euthanized 12 hours after last dosing, and blood and tumor samples were collected for analysis.

U-87 MG cells = experiment: Cell proliferation assay in U-87 MG cells; format: cell-based; conditions: Homo sapiens, 240 h, day 10, read-out: Prolif_U87 IC50
Description: One day before experiment, Granta-519 cells were passaged to a density of 0.5×10^6 cells/ml. U-87 MG cells were trypsinized and 2,000 cells were seeded into 96-well plates and allow to grow overnight. On the day of experiment (day 0), Granta-519 Cells were spun down at 1,500 rpm for 4 min, resuspended in fresh medium to 0.5×10^6 cells/ml and 190 ul of cells were added to 96 well plates. For U-87 MG cells, old medium was removed and replaced with 190 uL fresh medium. Compound working stocks were first diluted at 1:50 with fresh medium in 96 well plate and 10 μL of diluted drugs were added to 96 well plates containing cells and incubated for 3 days. DMSO was used a vehicle control.
One day 3, 50 uL of Granta-519 cells were transferred to a new 96-well plate and 140 uL fresh medium was added. For U-87 MG cells, old medium was removed and replaced with 190 uL fresh medium. Compound working stocks were freshly diluted at 1:50 with medium and 10 μL of diluted drugs were added to cells and grow for 3 additional days. The same process was repeated on day 6. Cells were allowed to grow for additional 4 days.
On day 10, 100 uL Granta-519 cells were transferred to a new 96 well plate and 10 μL of Cell Counting Kit-8 (CCK-8, Jojindo, CK04-13) solution was added. For U-87 MG cells, old medium was removed and replaced with 100 uL fresh medium and 10 uL CCK-8 solution was added. Plates were incubated in CO2 incubator for 2 hours (Granta-519 cells) or 30 min (U-87 MG cells) and OD450 values were measured with a microplate reader (iMark microplate reader, Bio-Rad). Percentage of viable cells, relative to DMSO vehicle control, were calculated and plotted in Graphpad Prism ([Inhibitor]vs. normalized response−Variable slope) to determine proliferation IC50 values on day 10.
These cell proliferation procedures produced the data in Table 7.

[2] = system: U87MG-luc3 human glioblastoma cells; experiment: Tumor growth inhibition in U87 MG mouse orthotopic model; format: in vivo; conditions: for tumor growth inhibition: day 29
Description: U87MG-luc3 human glioblastoma cells were grown to mid-log phase in Eagle's Minimum Essential Medium containing 10% fetal bovine serum, 2 mM glutamine, 1× non-essential amino acids, 0.075% sodium bicarbonate, 1 mM sodium pyruvate, 100 units/mL sodium penicillin G, g/mL gentamicin, and 100 μg/mL streptomycin sulfate. The tumor cells were cultured in tissue culture flasks in a humidified incubator at 37° C., in an atmosphere of 5% CO2 and 95% air. Cells were cultured in 2 μg/mL puromycin until the second to last passage before implant, grown to mid-log phase and harvested. Post-implant verification of luciferase-expressing cells was performed by maintaining cells in culture for three passages after implant to ensure stable doubling time. Limiting dilution was used to verify and quantitate light production in the presence of luciferin. Cells were harvested at mid-log phase and resuspended at a concentration of 1×10^8 cells/mL in PBS. Each mouse (Female athymic nude mice (Crl:NU(NCr)-Foxn1nu, Charles River)) received an intracranial injection of 1×10^6 U87MG-luc3 cells (0.01 mL cell suspension) and tumor growth was monitored through whole body bioluminescent imaging. Four days post cell implant, designated as Day 1 of the study, the animals were sorted into five groups based on flux values before treatment starts. Ex. 11 or vehicle (0.5% Na CMC+0.5% Tween80) was administered orally BID. Ex. 11 was dosed at 10, 20 mg/kg BID and 50 mg/kg BID, 7-day on/7-day off for 22 days. Animals were continued to be observed to obtain overall survival data.
In Vivo bioluminescence images (dorsal) were captured to monitor tumor progression. Luciferase activity was measured in live animals using IVIS SpectrumCT (Perkin Elmer, Mass.) equipped with a CCD camera (cooled at −90° C.), mounted on a light-tight specimen chamber. Regions of interest were drawn around each mouse image, and flux was quantified and reported as 10^6 photons per second (p/s). For overall survival, animals were monitored individually to an endpoint of moribundity due to progression of systemic lymphoma. Full hind limb paralysis, severe ocular proptosis or moribundity all called for euthanasia.

[3] = 50 mg/kg BID oral, 7-day on/7-day off

SMILES	body weight loss ([1]; 25 mg/kg BID oral, 16 days) [%]	tumor growth inhibition ([1]; 25 mg/kg BID oral, 16 days) [%]	body weight gain ([1]; 50 mg/kg QD oral, 20 days) [%]	tumor growth inhibition ([1]; 50 mg/kg QD oral, 20 days) [%]	IC50 (U-87 MG cells) [µM]	median survival ([2]; 10 mg/kg BID oral) [days]	tumor growth inhibition ([2]; 10 mg/kg BID oral) [%]	median survival ([2]; 20 mg/kg BID oral) [days]	tumor growth inhibition ([2]; 20 mg/kg BID oral) [%]	median survival [2, 3] [days]	tumor growth inhibition [2, 3] [%]
C[C@@](O)(c1ccc2c(c1)CC2)[C@H]1O[C@@H](n2ccc3c(N)ncnc32)[C@H](O)[C@@H]1O [Example 1, (2R,3R,4S,5S)-2-(4-amino-7H-pyrrolo[2,3-d]pyrimidin-7-yl)-5-((R)-1-(bicyclo[4.2.0]octa-1(6),2,4-trien-3-yl)-1-hydroxyethyl)tetrahydrofuran-3,4-diol]	6.75	76.7	10.1	5.8	–	–	–	–	–	–	–
Nc1ncnc2c1c(F)cn2[C@@H]1O[C@H]([C@H](O)c2ccc3c(c2)CC3)[C@@H](O)[C@H]1O [Example 6, (2R,3R,4S,5R)-2-(4-amino-5-fluoro-7H-pyrrolo[2,3-d]pyrimidin-7-yl)-5-((R)-bicyclo[4.2.0]octa-1(6),2,4-trien-3-yl(hydroxy)methyl)tetrahydrofuran-3,4-diol]	–	–	–	–	0.115	–	–	–	–	–	–
Cc1ncnc2c1ccn2[C@@H]1O[C@H]([C@H](O)c2ccc3c(c2)CC3)[C@@H](O)[C@H]1O [Example 11, (2R,3S,4R,5R)-2-((R)-bicyclo[4.2.0]octa-1(6),2,4-trien-3-yl(hydroxy)methyl)-5-(4-methyl-7H-pyrrolo[2,3-d]pyrimidin-7-yl)tetrahydrofuran-3,4-diol]	–	–	–	–	0.206	41	10	37.5	61	39	85

Reference: patent publication US11524962B2, “Substituted pyrrolo[2,3-d]pyrimidines as inhibitors of protein arginine methyl transferase 5 (PRMT5)” (PRELUDE THERAPEUTICS, INCORPORATED, priority 2017, dated 2022)
